≈ marks a conversion by molar mass, not a printed value. Blank lines part the entries; values can stand above or below the molecule they belong to.
Assays:
Bacteria = experiment: Inhibitory activity against bacteria in the transcription/translation assay; assay type: functional, organism-based
Enterococcus hirae [1] = experiment: Minimal inhibitory concentration against gram positive Enterococcus hirae 29212 strain (Range is 1-3 uM); assay type: functional
Escherichia coli [2] = experiment: Minimal inhibitory concentration against Escherichia coli (Range is 12-25 uM); assay type: functional
Escherichia coli [3] = experiment: Minimal inhibitory concentration against gram negative Escherichia coli 25922 strain (Range is 12-25 uM); assay type: functional; conditions: ATCC25922
Klebsiella pneumoniae = experiment: Minimal inhibitory concentration against gram negative Klebsiella pneumoniae 13383 strain (Range is 6-12 uM); assay type: functional
Pseudomonas aeruginosa [4] = experiment: Minimal inhibitory concentration against gram negative Pseudomonas aeruginosa 25416 strain (Range is 12-25 uM); assay type: functional
Staphylococcus aureus [5] = experiment: Minimal inhibitory concentration against Staphylococcus aureus (Range is 6-12 uM); assay type: functional
Staphylococcus aureus [6] = experiment: Minimal inhibitory concentration against gram positive Staphylococcus aureus 13709 strain (Range is 6-12 uM); assay type: functional
Streptococcus pneumoniae [7] = experiment: Minimal inhibitory concentration against gram positive Streptococcus pneumoniae 6303 strain (Range is 6-12 uM); assay type: functional
Streptococcus pyogenes [8] = experiment: Minimal inhibitory concentration against gram positive Streptococcus pyogenes 49399 strain (Range is 3-6 uM); assay type: functional
Escherichia coli [9] = experiment: Minimal inhibitory concentration against Escherichia coli (Range is 50-100 uM); assay type: functional
Staphylococcus aureus [10] = experiment: Minimal inhibitory concentration against Staphylococcus aureus (Range is 25-50 uM); assay type: functional
Escherichia coli [11] = experiment: Minimal inhibitory concentration against Escherichia coli (Range is 25-50 uM); assay type: functional
Staphylococcus aureus [12] = experiment: Minimal inhibitory concentration against Staphylococcus aureus (Range is 12-25 uM); assay type: functional
Escherichia coli [13] = experiment: Minimal inhibitory concentration against Escherichia coli; assay type: functional
Staphylococcus aureus [14] = experiment: In vitro minimal inhibitory concentration against Staphylococcus aureus.; assay type: functional
Staphylococcus aureus [15] = experiment: Minimal inhibitory concentration against Staphylococcus aureus (Range is 50-100 uM); assay type: functional
Enterococcus hirae [16] = experiment: Minimal inhibitory concentration against gram positive Enterococcus hirae 29212 strain (Range is 3-6 uM); assay type: functional
Escherichia coli [17] = experiment: Minimal inhibitory concentration against gram negative Escherichia coli 25922 strain; assay type: functional; conditions: ATCC25922
Pseudomonas aeruginosa [18] = experiment: Minimal inhibitory concentration against gram negative Pseudomonas aeruginosa 25416 strain (Range is 50-100 uM); assay type: functional
Proteus vulgaris = experiment: Minimal inhibitory concentration against gram negative Proteus vulgaris 8427 strain (Range is 50-100 uM); assay type: functional
Staphylococcus aureus [19] = experiment: Minimal inhibitory concentration against Staphylococcus aureus (Range is 3-6 uM); assay type: functional
Staphylococcus aureus [20] = experiment: Minimal inhibitory concentration against gram positive Staphylococcus aureus 13709 strain (Range is 3-6 uM); assay type: functional
Streptococcus pyogenes [21] = experiment: Minimal inhibitory concentration against gram positive Streptococcus pyogenes 49399 strain (Range is 6-12 uM); assay type: functional
Streptococcus pneumoniae [22] = experiment: Minimal inhibitory concentration against gram positive Streptococcus pneumoniae 6303 strain (Range is 12-25 uM); assay type: functional

Compound: Clc1cc2nc(C3CCNCC3)n(CCCCCCn3c(C4CCNCC4)nc4cc(Cl)c(Cl)cc43)c2cc1Cl
- IC50 (Bacteria): > 100 µM
- MIC (Enterococcus hirae [1]): 3 µM (≈ 1.87 µg/mL)
- MIC (Escherichia coli [2]): 25 µM (≈ 15.6 µg/mL)
- MIC (Escherichia coli [3]): 25 µM (≈ 15.6 µg/mL)
- MIC (Klebsiella pneumoniae): 12 µM (≈ 7.47 µg/mL)
- MIC (Pseudomonas aeruginosa [4]): 25 µM (≈ 15.6 µg/mL)
- MIC (Staphylococcus aureus [5]): 12 µM (≈ 7.47 µg/mL)
- MIC (Staphylococcus aureus [6]): 12 µM (≈ 7.47 µg/mL)
- MIC (Streptococcus pneumoniae [7]): 12 µM (≈ 7.47 µg/mL)
- MIC (Streptococcus pyogenes [8]): 6 µM (≈ 3.73 µg/mL)

Compound: O=S(=O)(NCCCCCn1c(C2CCNCC2)nc2cc(Cl)c(Cl)cc21)c1ccccc1
- MIC (Escherichia coli [13]): > 100 µM
- MIC (Staphylococcus aureus [14]): > 100 µM

Compound: O=C1c2cc3ccccc3cc2C(=O)N1CCCCCn1c(C2CCNCC2)nc2cc(Cl)c(Cl)cc21
- MIC (Escherichia coli [13]): > 100 µM
- MIC (Staphylococcus aureus [14]): > 100 µM

Compound: O=C1CCC(=O)N1CCCCCn1c(C2CCNCC2)nc2cc(Cl)c(Cl)cc21
- MIC (Escherichia coli [13]): > 100 µM
- MIC (Staphylococcus aureus [14]): > 100 µM

Compound: O=C(Cn1c(C2CCNCC2)nc2cc(Cl)c(Cl)cc21)NNC(=S)NCCCN1CCOCC1
- MIC (Escherichia coli [13]): > 100 µM
- MIC (Staphylococcus aureus [14]): > 100 µM

Compound: Clc1cc2nc(C3CCNCC3)n(CCCCCN3Cc4ccccc4C3)c2cc1Cl
- MIC (Escherichia coli [11]): 50 µM (≈ 22.9 µg/mL)
- MIC (Staphylococcus aureus [15]): 100 µM (≈ 45.7 µg/mL)

Compound: Clc1cc2nc(C3CCNCC3)n(CCCCCn3cnnc3)c2cc1Cl
- MIC (Escherichia coli [13]): > 100 µM
- MIC (Staphylococcus aureus [14]): > 100 µM

Compound: Clc1cc2nc(C3CCNCC3)n(CCCCCn3cnc4ccccc43)c2cc1Cl
- MIC (Escherichia coli [9]): 100 µM (≈ 45.6 µg/mL)
- MIC (Staphylococcus aureus [15]): 100 µM (≈ 45.6 µg/mL)

Compound: O=C1c2ccccc2C(=O)N1CCn1c(C2CCNCC2)nc2cc(Cl)c(Cl)cc21
- MIC (Escherichia coli [13]): > 100 µM
- MIC (Staphylococcus aureus [14]): > 100 µM

Compound: O=C(Cn1c(C2CCNCC2)nc2cc(Cl)c(Cl)cc21)N/N=C/c1c[nH]c2ccc(OCc3ccccc3)cc12
- IC50 (Bacteria): > 100 µM
- MIC (Enterococcus hirae [16]): 6 µM (≈ 3.45 µg/mL)
- MIC (Escherichia coli [13]): > 100 µM
- MIC (Escherichia coli [17]): > 100 µM
- MIC (Klebsiella pneumoniae): 12 µM (≈ 6.91 µg/mL)
- MIC (Pseudomonas aeruginosa [18]): 100 µM (≈ 57.6 µg/mL)
- MIC (Proteus vulgaris): 100 µM (≈ 57.6 µg/mL)
- MIC (Staphylococcus aureus [19]): 6 µM (≈ 3.45 µg/mL)
- MIC (Staphylococcus aureus [20]): 6 µM (≈ 3.45 µg/mL)
- MIC (Streptococcus pyogenes [21]): 12 µM (≈ 6.91 µg/mL)
- MIC (Streptococcus pneumoniae [22]): 25 µM (≈ 14.4 µg/mL)

Compound: O=C1c2ccccc2C(=O)N1CCCn1c(C2CCNCC2)nc2cc(Cl)c(Cl)cc21
- MIC (Escherichia coli [13]): > 100 µM
- MIC (Staphylococcus aureus [14]): > 100 µM

Compound: O=C1c2cc(Cl)c([N+](=O)[O-])cc2C(=O)N1CCCCCn1c(C2CCNCC2)nc2cc(Cl)c(Cl)cc21
- MIC (Escherichia coli [9]): 100 µM (≈ 56.5 µg/mL)
- MIC (Staphylococcus aureus [10]): 50 µM (≈ 28.2 µg/mL)

Results, then the molecule that gave them:

- MIC (Escherichia coli [9]): 100 µM (≈ 47.7 µg/mL)
- MIC (Staphylococcus aureus [10]): 50 µM (≈ 23.9 µg/mL)
Compound: O=C(Cn1c(C2CCNCC2)nc2cc(Cl)c(Cl)cc21)NNC(=S)Nc1ccccc1

- MIC (Escherichia coli [11]): 50 µM (≈ 25.4 µg/mL)
- MIC (Staphylococcus aureus [12]): 25 µM (≈ 12.7 µg/mL)
Compound: CSc1ccc(NC(=O)NNC(=O)Cn2c(C3CCNCC3)nc3cc(Cl)c(Cl)cc32)cc1

- MIC (Escherichia coli [13]): > 100 µM
- MIC (Staphylococcus aureus [10]): 50 µM (≈ 23 µg/mL)
Compound: COc1cccc(/C=N/NC(=O)Cn2c(C3CCNCC3)nc3cc(Cl)c(Cl)cc32)c1

- MIC (Escherichia coli [13]): > 100 µM
- MIC (Staphylococcus aureus [10]): 50 µM (≈ 26.1 µg/mL)
Compound: COc1cc(/C=N/NC(=O)Cn2c(C3CCNCC3)nc3cc(Cl)c(Cl)cc32)cc([N+](=O)[O-])c1O

- MIC (Escherichia coli [13]): > 100 µM
- MIC (Staphylococcus aureus [15]): 100 µM (≈ 46.1 µg/mL)
Compound: O=C(Cn1c(C2CCNCC2)nc2cc(Cl)c(Cl)cc21)NNC(=O)Nc1ccccc1

- MIC (Escherichia coli [13]): > 100 µM
- MIC (Staphylococcus aureus [15]): 100 µM (≈ 42 µg/mL)
Compound: O=C(Cn1c(C2CCNCC2)nc2cc(Cl)c(Cl)cc21)N/N=C/c1c[nH]cn1

- MIC (Escherichia coli [13]): > 100 µM
- MIC (Staphylococcus aureus [15]): 100 µM (≈ 48.8 µg/mL)
Compound: O=C(Cn1c(C2CCNCC2)nc2cc(Cl)c(Cl)cc21)N/N=C/c1ccc2c(c1)OCCO2

- MIC (Escherichia coli [13]): > 100 µM
- MIC (Staphylococcus aureus [14]): > 100 µM
Compound: O=C(Cn1c(C2CCNCC2)nc2cc(Cl)c(Cl)cc21)N/N=C/c1ccncc1

- MIC (Escherichia coli [13]): > 100 µM
- MIC (Staphylococcus aureus [10]): 50 µM (≈ 25.7 µg/mL)
Compound: O=C(Cn1c(C2CCNCC2)nc2cc(Cl)c(Cl)cc21)N/N=C/c1cccc(OC(F)(F)F)c1

- MIC (Escherichia coli [11]): 50 µM (≈ 26.9 µg/mL)
- MIC (Staphylococcus aureus [12]): 25 µM (≈ 13.4 µg/mL)
Compound: O=C(Cn1c(C2CCNCC2)nc2cc(Cl)c(Cl)cc21)NNC(=O)Nc1ccccc1-c1ccccc1

- MIC (Escherichia coli [13]): > 100 µM
- MIC (Staphylococcus aureus [15]): 100 µM (≈ 48.1 µg/mL)
Compound: O=C(Cn1c(C2CCNCC2)nc2cc(Cl)c(Cl)cc21)NNC(=S)NCc1ccco1

- MIC (Escherichia coli [9]): 100 µM (≈ 50.5 µg/mL)
- MIC (Staphylococcus aureus [10]): 50 µM (≈ 25.3 µg/mL)
Compound: O=C(Cn1c(C2CCNCC2)nc2cc(Cl)c(Cl)cc21)NNC(=O)Nc1ccc2c(c1)OCO2

- MIC (Escherichia coli [13]): > 100 µM
- MIC (Staphylococcus aureus [10]): 50 µM (≈ 23.5 µg/mL)
Compound: O=C(Cn1c(C2CCNCC2)nc2cc(Cl)c(Cl)cc21)N/N=C/c1c[nH]c2ccccc12

Reference: ChEMBL document CHEMBL1147597, “Synthesis and biological evaluations of novel benzimidazoles as potential antibacterial agents” (Bioorg Med Chem Lett, 2004)
